According to US4014999A, “Halo-steroidal thioketals for treating inflammation” (Ortho Pharmaceutical Corporation, priority 1976, dated 1977):

Test system: left hind paw inflammation in rats with adjuvant arthritis
Assay: Therapeutic Treatment of Adjuvant Arthritis in Rats (left hind paw inflammation)
Type: in vivo, Carworth Wistar (Lewis) rats
Description: Carworth Wistar (Lewis) rats weighing approximately 200 grams are anesthetized with ether, weighed and their hind paws measured by means of a mercury displacement method. The left hind paw is injected intradermally with heat-killed Mycobacterium tuberculosis in white mineral oil. Measurements of body weight and paw volume are obtained on days 2, 5, 10, 15, 20 and 25. Therapeutic treatment is started on day 15.
Following the injection with Mycobacterium tuberculosis, a primary inflammation develops immediately in the injected paw. Secondary inflammation of the joints of the other legs and feet, nodules on the tail and red spots on the ears develop about day 10-15. The object of the test is to determine the anti-inflammatory effects of the drug treatments.
Groups of rats (five rats/group) are treated as follows: One group receives no Mycobacterium tuberculosis and is the negative control group. One group receives Mycobacterium tuberculosis but no anti-inflammatory drug and is the positive control group. Other groups receive Mycobacterium tuberculosis and either oral or topical test compounds or standard anti-inflammatory agents beginning on day 15 and are considered experimental groups. Experimental anti-inflammatory and standard anti-inflammatory compounds are administered either once every five days, i.e., after grading on days 15 and 20, or once/day on days 15-24.
In the topical studies a measured amount of drug is mixed into about 0.5 ml of SILASTIC* Medical Adhesive (or other appropriate vehicle) and applied to cover the left hind paw. Rats so treated are housed individually to eliminate the removal of the medication by another rat. The following, Tables 1 and 2 illustrate the anti-inflammatory potency and efficacy of the oral and topical treatments.

[1] = oral, once per day, 0.00375 mg/kg
[2] = oral, once per day, 0.00750 mg/kg
[3] = oral, once per day, 0.01500 mg/kg
[4] = oral, once per day, 0.03000 mg/kg
[5] = oral, once per day, 0.06250 mg/kg
[6] = oral, once per day, 0.12500 mg/kg

Structure (SMILES) | Percent Inhibition of Left Hind Paw Inflammation (oral, once every five days, 0.075 mg/kg/5 days) [%] | Percent Inhibition of Left Hind Paw Inflammation (oral, once every five days, 0.150 mg/kg/5 days) [%] | Percent Inhibition of Left Hind Paw Inflammation (oral, once every five days, 0.300 mg/kg/5 days) [%] | Percent Inhibition of Left Hind Paw Inflammation (oral, once every five days, 0.625 mg/kg/5 days) [%] | Percent Inhibition of Left Hind Paw Inflammation (oral, once every five days, 1.250 mg/kg/5 days) [%] | Percent Inhibition of Left Hind Paw Inflammation (oral, once every five days, 2.500 mg/kg/5 days) [%] | Percent Inhibition of Left Hind Paw Inflammation [1] [%] | Percent Inhibition of Left Hind Paw Inflammation [2] [%] | Percent Inhibition of Left Hind Paw Inflammation [3] [%] | Percent Inhibition of Left Hind Paw Inflammation [4] [%] | Percent Inhibition of Left Hind Paw Inflammation [5] [%] | Percent Inhibition of Left Hind Paw Inflammation [6] [%] | Percent Inhibition of Left Hind Paw Inflammation (oral, once per day, 0.25000 mg/kg) [%] | Percent Inhibition of Left Hind Paw Inflammation (topical (in SILASTIC Medical Adhesive), once every five days, 0.300 mg/kg/5 days) [%] | Percent Inhibition of Left Hind Paw Inflammation (topical (in SILASTIC Medical Adhesive), once every five days, 0.625 mg/kg/5 days) [%] | Percent Inhibition of Left Hind Paw Inflammation (topical (in SILASTIC Medical Adhesive), once every five days, 1.250 mg/kg/5 days) [%] | Percent Inhibition of Left Hind Paw Inflammation (topical (in SILASTIC Medical Adhesive), once every five days, 2.500 mg/kg/5 days) [%]
CC1(C)O[C@@H]2C[C@H]3[C@@H]4C[C@H](F)C5=CC6(C=C[C@]5(C)[C@@]4(F)[C@@H](O)C[C@]3(C)[C@]2(C(=O)CO)O1)SCCS6 [Compound A, 6α,9-difluoropregna-1,4-diene-11β,16α,17,21-tetrol-3,20-dione-3-ethylenedithioketal-16,17-acetonide] | 14.7 | 15.3 | 18.1 | 29.0 | 35.0 | 44.3 | 5 | 9 | 43 | 34 | 60 | 83 | 95 | 31.1 | 52.6 | 57.5 | 64.5
CC1(C)O[C@@H]2C[C@H]3[C@@H]4C[C@H](F)C5=CC(=O)C=C[C@]5(C)[C@@]4(F)[C@@H](O)C[C@]3(C)[C@]2(C(=O)CO)O1 [Compound B, fluocinolone acetonide, reference compound] | – | – | – | – | – | – | 19 | 15 | 32 | 66 | 76 | 64 | – | – | – | – | –
